Experimental data reported in patent US9173871B2, “Oxazole and thiazole compounds as beta-catenin modulators and uses thereof” (New York University, priority 2008, dated 2015).

Columns and labels:
Format in all cases: cell-based
membrane bound β-catenin = assay: Immunofluorescence of membrane β-catenin in androgen-deprived LNCaP cells
From the text: An important objective in the initial screen for inhibitors of β-catenin responsive transcription (iCRT) was to isolate compounds that diminished the nuclear function of β-catenin without affecting β-catenin interaction with E-cadherin at the cell membrane.

HEK 293 cells [1] = assay: PARP cleavage immunoblot, HEK293; conditions: HEK 293, 20 μM, 72 hr
[2] = tested on: ARE-LUC androgen responsive reporter gene in LNCaP; assay: AR responsive luciferase reporter (ARE-LUC / LB1-LUC) in LNCaP cells
Protocol: (§1) LNCaP or LNCaP-abl (ABL) cells were cotransfected with 0.1 μg β-galactosidase and 0.2 μg S37A stabilized β-catenin together with the indicated luciferase reporter constructs; STF16-LUC (β-catenin reporter) and LB1-LUC (AR reporter). […] Luciferase activity was normalized to β-galactosidase expression.
(§2) To determine the IC50 for the β-catenin/Wnt-responsive reporter, cells were cotransfected with β-galactosidase (LacZ) and a constitutively active S37A stabilized β-catenin mutant construct together with the reporter construct, STF16-LUC. To determine the IC50 for the AR-responsive construct, cells were cotransfected with LacZ and the AR responsive reporter construct, ARE-LUC. […] B) AR overexpression circumvents C3 repression of AR-responsive transcription. LNCaP cells were cotransfected with 0.1 μg LacZ and 0.2 μg of the AR responsive reporter construct, ARE-LUC, together with 0, 0.05, 0.1 and 0.2 μg of an AR expression vector. […] Luciferase activity was normalized to LacZ expression.
(§3) 108(15): 5954-63], it had not been determined in prostate cancer cells. […] 69(8): 3332-8].

[3] = tested on: AR and β-catenin target genes in LNCaP-abl cells; assay: Q-PCR time course of AR and β-catenin target genes in LNCaP-abl cells; conditions: single dose at time 0, persists for 48 hours, FIG. 16A
Protocol: ABL cells were treated similarly, but cultured in 5% charcoal-stripped phenol-red free RPMI. The mRNA was extracted at each time point and relative levels of indicated genes were analyzed by Q-PCR and normalized to RPL19. B) Protein from LNCaP cells was analyzed at each time point and immunoblotted with indicated antibodies.
Expression of tubulin (included as an internal loading control) and β-catenin were unaffected.

LNCaP cells [4] = assay: PARP cleavage immunoblot as marker of apoptosis, LNCaP; conditions: 20 μM, 72 hr
[5] = tested on: Wnt/β-catenin STF-LUC reporter in LNCaP; assay: β-catenin/Wnt-responsive STF16-LUC reporter with S37A β-catenin in LNCaP cells
Protocol: as §1, §2, §3

[6] = tested on: ARE-LUC androgen responsive reporter gene in LNCaP-abl; assay: AR responsive luciferase reporter (ARE-LUC / LB1-LUC) in LNCaP-abl cells
Protocol: as §1, §2, §3

[7] = tested on: AR and β-catenin target genes in LNCaP cells; assay: Q-PCR of AR and β-catenin target genes in LNCaP cells; conditions: 20 μM, 24 hr
From the text: Samples are normalized to RPL19 and E-cadherin and GAPDH are included as controls.
While β-catenin can act as an AR coactivator [Song et al., J Biol Chem, 2005. 280(45): 37853-67], AR mRNA levels are also directly regulated by TCF binding sites in the AR promoter [Yang et al., Oncogene, 2006. 25(24): 3436-44]. […] AR mRNA was quantified along with well-characterized AR target genes, Nkx3.1 and PSA. In addition, CDC20, CDK1 and UBE2C, M phase cell cycle regulatory genes that are AR targets in LNCaP-abl cells were examined [Wang et al., Cell, 2009. 138(2): 245-56]. Levels of c-myc were also examined since c-myc is a known Wnt/β-catenin target gene and assessment of information available through the Memorial Sloan Kettering cBio Cancer Genomics portal [Taylor et al., Cancer Cell, 2010. […] E-cadherin and GAPDH are not affected by C3 treatment.

LNCaP cells [8] = assay: Flow cytometry DNA content (propidium iodide), LNCaP; conditions: 20 μM, 24 hr
Protocol: A) Cells were cultured in phenol-red free RPMI with either 5% charcoal-stripped FBS supplemented with 0.1 nM R1881 (LNCaP) or 10% charcoal-stripped FBS alone (LNCaP-abl). […] Neutral red uptake assay was performed at the end of treatment to estimate the number of viable cells. […] Fixed cells were stained with Propidium Iodide and analyzed for DNA content using flow cytometry. The first and the second red peak and the dashed area represent G0/G1, M and S-phase cell population, respectively.

HEK 293 cells [9] = assay: Neutral red uptake growth assay, HEK293; conditions: HEK 293, higher levels of C3 (10 or 20 μM daily)
Protocol: Left panel; HEK293 cells were cultured in DMEM with 10% FBS. […] Neutral red uptake assay was performed at the end of treatment to estimate the number of viable cells.

CCc1ccc(-c2nc(CSCC(=O)NCCc3ccccc3)c(C)o2)cc1 [Compound C3]
ability of β-catenin to interact with E-cadherin at the cell membrane (membrane bound β-catenin): does not affect
apoptosis (PARP cleavage) in 293 cells (HEK 293 cells [1]): does not induce apoptosis
IC50 ([2]; LNCaP (first of two values)): 1440 nM
AR reporter gene activity (LB1-LUC) ([2]; LNCaP, 20 uM, 24 hr): inhibits
AR, CDK1, UBE2C and c-myc mRNA [3]: diminished
PARP cleavage (apoptosis marker) (LNCaP cells [4]): Increased levels of PARP cleavage
IC50 [5]: 140 nM
Wnt reporter gene activity (STF16-LUC) ([5]; 20 uM, 24 hr): inhibits
IC50 ([6]; LNCaP-abl (second of two values)): 1610 nM
AR reporter gene activity (LB1-LUC) ([6]; LNCaP-abl, 20 uM, 24 hr): inhibits
mRNA of E-cadherin and GAPDH (controls) [7]: not affected
mRNA of AR, NR×3.1, CDC20, PSA, CDK1, c-myc and UBE2C ([7]; with or without R1881): diminished
cell cycle effect by flow cytometry (LNCaP cells [8]): growth arrest of the cells in the G0/G1 phase
293 cell growth (HEK 293 cells [9]): somewhat slow
